From patent US11214578B2, “Urea/carbamates FAAH MAGL or dual FAAH/MAGL inhibitors and uses thereof” (Northeastern University, priority 2014, dated 2022)

Key:
Type in all cases: biochemical
ΔTM rat FAAH = biological target: T1, ΔTM rat FAAH (Rattus norvegicus, UniProt P97612); test: Fluorescent assay protocol for ΔTM rat FAAH (AAMCA substrate); settings: 15 min preincubation, read-out: IC50 rFAAH
T1 construct: Preparation of Transmembrane Domain-Deleted Rat FAAH (ΔTM rFAAH); made in house; host or cells: E. coli
T1 sequence (P97612 30-579 limits assumed): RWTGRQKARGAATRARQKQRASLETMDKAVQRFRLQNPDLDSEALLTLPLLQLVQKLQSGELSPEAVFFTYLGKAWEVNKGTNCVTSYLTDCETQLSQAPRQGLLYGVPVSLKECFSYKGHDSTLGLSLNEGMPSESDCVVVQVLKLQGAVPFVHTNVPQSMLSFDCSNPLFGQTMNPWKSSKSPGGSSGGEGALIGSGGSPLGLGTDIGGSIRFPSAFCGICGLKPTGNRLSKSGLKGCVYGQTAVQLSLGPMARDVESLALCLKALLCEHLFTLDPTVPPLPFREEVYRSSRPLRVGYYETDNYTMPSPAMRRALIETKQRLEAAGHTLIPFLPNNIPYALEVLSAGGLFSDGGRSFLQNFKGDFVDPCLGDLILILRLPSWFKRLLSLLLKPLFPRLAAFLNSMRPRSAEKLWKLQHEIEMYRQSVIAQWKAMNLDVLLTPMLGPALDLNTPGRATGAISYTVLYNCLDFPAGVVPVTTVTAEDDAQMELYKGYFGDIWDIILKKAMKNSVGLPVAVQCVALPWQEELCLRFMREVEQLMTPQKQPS
Description: Procedure was followed as described for hMAGL, except that arachidonoyl-methyl coumarin amide (AAMCA) was used as fluorigenic substrate. […] For the screening assay, 3 concentrations (1 μM, 10 μM, and 100 μM) of test compounds, 15 μg of ΔTM rFAAH and assay buffer were pre-incubated for 15 min at 25° C. […] The fluorescence reading at the 3 hour time point (linear enzyme kinetics) was used to calculate percent inhibition based on control assays without inhibitor present. All FAAH assays were performed in triplicate for each inhibitor concentration, and IC50 values determined using Prizm software (GraphPad Software, Inc.).

Human MAGL (hMAGL) = biological target: T2, Human MAGL (hMAGL) (Homo sapiens, UniProt Q99685); test: Fluorescent assay protocol for hMAGL (AHMMCE substrate); settings: recombinant human MAGL, AHMMCE substrate, 15 min preincubation; read-out: IC50 hMAGL
T2 construct: hexahistidine; made in house; host or cells: E. coli
T2 sequence (Q99685 1-303): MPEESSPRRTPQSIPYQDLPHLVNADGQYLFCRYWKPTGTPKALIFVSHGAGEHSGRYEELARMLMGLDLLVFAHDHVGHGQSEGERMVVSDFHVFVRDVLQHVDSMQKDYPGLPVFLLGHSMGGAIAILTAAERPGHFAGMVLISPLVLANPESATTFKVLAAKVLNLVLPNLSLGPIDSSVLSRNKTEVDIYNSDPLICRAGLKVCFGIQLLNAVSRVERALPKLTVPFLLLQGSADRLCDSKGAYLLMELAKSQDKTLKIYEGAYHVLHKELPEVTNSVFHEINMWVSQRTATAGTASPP
Description: (§1) This medium throughput assay involved a 96-well plate format in which hMAGL activity was monitored by the hydrolysis of the substrate 7-hydroxy-6-methoxy-4-methylcoumarin ester (AHMMCE) to form the fluorescent product, coumarin. […] Upon the addition of AHMMCE, the reaction was incubated at 25° C. for 120 min; fluorescence readings were taken every 15 min at 360 nm/460 nm (λexcitation/λemission) using a Synergy HT Plate Reader (Bio-Tek, Winooski, Vt.). […] External standards were used to convert relative fluorescence units to the amount of 4-methylcoumarin formed. All MAGL assays were performed in triplicate for each inhibitor concentration, and IC50 values were calculated using Prizm software (GraphPad Software, Inc., San Diego, Calif.).

Rat MAGL (rMAGL) = biological target: T3, Rat MAGL (rMAGL) (Rattus norvegicus, UniProt Q8R431); test: Fluorescent assay protocol for rMAGL; settings: recombinant rat MAGL, procedure as for hMAGL; read-out: IC50 rMAGL
T3 construct: made in house; host or cells: E. coli
T3 sequence (Q8R431 1-303): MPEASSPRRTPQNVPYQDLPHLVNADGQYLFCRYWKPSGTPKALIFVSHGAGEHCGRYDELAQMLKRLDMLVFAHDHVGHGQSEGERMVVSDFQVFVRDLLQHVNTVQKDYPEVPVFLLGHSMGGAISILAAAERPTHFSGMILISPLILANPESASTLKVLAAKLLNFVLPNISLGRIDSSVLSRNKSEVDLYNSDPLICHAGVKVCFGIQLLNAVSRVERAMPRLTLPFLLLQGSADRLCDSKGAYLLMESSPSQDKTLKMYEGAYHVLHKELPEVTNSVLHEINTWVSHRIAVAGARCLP
Description: as §1
Procedure was followed as described for hMAGL.

Human FAAH (MBPΔTMhFAAH) = biological target: T4, Human FAAH (MBPΔTMhFAAH) (Homo sapiens, UniProt O00519); test: Fluorescent assay protocol for hFAAH; settings: human FAAH (MBP fusion, ΔTM), procedure as for rFAAH
T4 construct: made in house; host or cells: E. coli (pMALcE4 vector)
T4 sequence (O00519 30-579 limits assumed): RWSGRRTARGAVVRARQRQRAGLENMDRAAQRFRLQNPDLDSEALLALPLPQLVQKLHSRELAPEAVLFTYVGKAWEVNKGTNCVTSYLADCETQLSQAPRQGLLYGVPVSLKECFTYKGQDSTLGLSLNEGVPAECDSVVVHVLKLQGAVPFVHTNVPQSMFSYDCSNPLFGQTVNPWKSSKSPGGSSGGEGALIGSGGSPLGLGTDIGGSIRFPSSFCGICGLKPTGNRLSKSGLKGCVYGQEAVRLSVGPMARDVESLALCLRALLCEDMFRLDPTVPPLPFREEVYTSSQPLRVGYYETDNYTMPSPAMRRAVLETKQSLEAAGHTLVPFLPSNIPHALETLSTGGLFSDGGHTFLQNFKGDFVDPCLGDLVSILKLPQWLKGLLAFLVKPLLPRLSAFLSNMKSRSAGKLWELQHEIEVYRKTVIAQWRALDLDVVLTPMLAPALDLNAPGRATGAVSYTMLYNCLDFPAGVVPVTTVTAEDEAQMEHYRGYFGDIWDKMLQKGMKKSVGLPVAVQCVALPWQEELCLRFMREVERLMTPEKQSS
Description: Human FAAH without putative transmembrane domain following maltose binding protein was expressed in E. coli cells using pMALcE4 vector Alapafuja et al J. Med. Chem. (2012) 55: 10074-89.
Procedure was followed as described for hMAGL, except that arachidonoyl-methyl coumarin amide (AAMCA) was used as fluorigenic substrate. Compounds were diluted in 50:50 DMSO/assay buffer (50 mM HEPES, 1 mM EDTA, 0.1% BSA, pH 7.4) so as to have a final DMSO concentration below 8% in each reaction. For the screening assay, 3 concentrations (1 μM, 10 μM, and 100 μM) of test compounds, 15 μg of ΔTM rFAAH and assay buffer were pre-incubated for 15 min at 25° C. AAMCA (20 μM, 2×Km) was added prior to incubation at 25° C. and kinetic fluorescence reading every 20 minutes (λex=360/λem=460) for 4 hours on a BioTek Synergy HT Microplate Reader (BioTek Instruments, Winooski, Vt.). The fluorescence reading at the 3 hour time point (linear enzyme kinetics) was used to calculate percent inhibition based on control assays without inhibitor present. All FAAH assays were performed in triplicate for each inhibitor concentration, and IC50 values determined using Prizm software (GraphPad Software, Inc.).
Procedure was followed as described for rFAAH.

Compound | IC50 (ΔTM rat FAAH) | IC50 (Human MAGL (hMAGL)) | IC50 (Rat MAGL (rMAGL)) | IC50 (Human FAAH (MBPΔTMhFAAH))
C[C@@H]1CN(C(=O)Nc2cccc(-c3cccc(C(N)=O)c3)c2)CCN1Cc1ccc2ccccc2n1 [Example 2, (R)—N-(3′-carbamoyl-[1,1′-biphenyl]-3-yl)-3-methyl-4-(quinolin-2-ylmethyl)piperazine-1-carboxamide] | 110 to 1000 nM | > 1000 nM | > 1000 nM | > 1000 nM
N#Cc1ccc(F)c(OC(=O)N2CCC(OC(c3ccccc3)c3ccccc3)CC2)c1 [Example 56, 5-cyano-2-fluorophenyl 4-(benzhydryloxy)piperidine-1-carboxylate] | 110 to 1000 nM | 110 to 1000 nM | 110 to 1000 nM | 110 to 1000 nM
COc1ccc(C#N)cc1OC(=O)N1CCC(S(=O)(=O)c2ccc(Br)cc2)CC1 [Example 62, 5-Cyano-2-methoxyyphenyl 4-(4-bromophenylsulfonyl)piperidine-1-carboxylate] | 10 to 100 nM | > 1000 nM | 10 to 100 nM | 10 to 100 nM
O=C(Oc1ccccc1)N1C[C@@H]2C[C@H]1CN2Cc1cccc(-c2ccccc2)c1 [Example 101, phenyl (1S,4S)-5-([1,1′-biphenyl]-3-ylmethyl)-2,5-diazabicyclo[2.2.1]heptane-2-carboxylate] | 10 to 100 nM | > 1000 nM | > 1000 nM | 10 to 100 nM
CC1CN(C(=O)n2cnc(-c3ccccc3)c2)CCN1c1cccc(O)c1 (stereo not shown) [Example 27, (4-(3-hydroxyphenyl)-3-methylpiperazin-1-yl)(4-phenyl-1H-imidazol-1-yl)methanone] | 110 to 1000 nM | > 1000 nM | > 1000 nM | 110 to 1000 nM
O=C(N1C[C@@H]2C[C@H]1CN2Cc1cccc(-c2ccccc2)c1)n1cnc(-c2ccccc2)c1 [Example 99, ((1S,4S)-5-([1,1′-biphenyl]-3-ylmethyl)-2,5-diazabicyclo[2.2.1]heptan-2-yl)(4-phenyl-1H-imidazol-1-yl)methanone] | 10 to 100 nM | > 1000 nM | > 1000 nM | 110 to 1000 nM
N#Cc1cccc(OC(=O)N2CCC(OC(c3ccc(Cl)cc3)c3cccnc3Cl)CC2)c1 (stereo not shown) [Example 53, 3-cyanophenyl 4-((4-chlorophenyl)(2-chloropyridin-3-yl)methoxy)piperidine-1-carboxylate] | 10 to 100 nM | 10 to 100 nM | 10 to 100 nM | 10 to 100 nM
N#Cc1cccc(OC(=O)N2CCC(S(=O)(=O)c3ccc(Br)cc3)CC2)c1 [Example 59, 3-Cyanophenyl 4-(4-bromophenylsulfonyl)piperidine-1-carboxylate] | 110 to 1000 nM | 10 to 100 nM | 10 to 100 nM | 10 to 100 nM
O=C(N1CCN(C(c2ccccc2)c2ccccc2)CC1)n1nnnc1Cc1ccccc1 [Example 31, (4-benzhydrylpiperazin-1-yl)(5-benzyl-1H-tetrazol-1-yl)methanone] | 10 to 100 nM | > 1000 nM | > 1000 nM | 10 to 100 nM
N#Cc1ccc(F)c(OC(=O)N2CCC(Cc3ccccc3)CC2)c1 [Example 45, 5-Cyano-2-fluorophenyl 4-benzylpiperidine-1-carboxylate] | 10 to 100 nM | > 1000 nM | > 1000 nM | 10 to 100 nM
O=C(Oc1cccc(-c2cccnc2)c1)N1CC(OCc2ccc(Cl)cc2)C1 [Example 80, 3-(Pyridin-3-yl)phenyl 3-(4-chlorobenzyloxy)azetidine-1-carboxylate] | 10 to 100 nM | > 1000 nM | > 1000 nM | 10 to 100 nM
O=C(N1CCN(C(c2ccccc2)c2ccccc2)CC1)n1cnc(-c2ccccc2)c1 [Example 30, (4-benzhydrylpiperazin-1-yl)(4-phenyl-1H-imidazol-1-yl)methanone] | > 1000 nM | > 1000 nM | > 1000 nM | 110 to 1000 nM
Cc1ccc(N2CCN(C(=O)n3cnc(-c4ccccc4)c3)CC2C)cc1 (stereo not shown) [Example 25, (3-methyl-4-(p-tolyl)piperazin-1-yl)(4-phenyl-1H-imidazol-1-yl)methanone] | 10 to 100 nM | > 1000 nM | > 1000 nM | 10 to 100 nM
O=C(N1C[C@@H]2C[C@H]1CN2Cc1cccc(-c2ccccc2)c1)n1cnc(Br)c1 [Example 100, ((1S,4S)-5-([1,1′-biphenyl]-3-ylmethyl)-2,5-diazabicyclo[2.2.1]heptan-2-yl)(4-bromo-1H-imidazol-1-yl)methanone] | 10 to 100 nM | > 1000 nM | > 1000 nM | 10 to 100 nM
N#Cc1cccc(-c2cccc(NC(=O)N3C[C@@H]4C[C@H]3CN4Cc3cccc(-c4ccccc4)c3)c2)c1 [Example 94, (1S,4S)-5-([1,1′-biphenyl]-3-ylmethyl)-N-(3′-cyano-[1,1′-biphenyl]-3-yl)-2,5-diazabicyclo[2.2.1]heptane-2-carboxamide] | 110 to 1000 nM | > 1000 nM | > 1000 nM | 110 to 1000 nM
CC1CN(C(=O)n2cnc(-c3ccccc3)c2)CCN1c1cccc(OCc2ccccc2)c1 (stereo not shown) [Example 26, (4-(3-(benzyloxy)phenyl)-3-methylpiperazin-1-yl)(4-phenyl-1H-imidazol-1-yl)methanone] | 10 to 100 nM | > 1000 nM | > 1000 nM | 110 to 1000 nM
